Reference: US20240099996A1, “METHODS FOR TREATING CANCER” (Radius Pharmaceuticals, Inc., priority 2015, published 2024)
Where a name gives a salt, the structure may show the parent alone.

Assays:
ER = target: T1, ER (Homo sapiens, UniProt P03372); assay: ER expression and ER target genes in T47D cell line; format: cell-based; conditions: 0.01, 0.1, 1 μM
T1 sequence (P03372 1-595): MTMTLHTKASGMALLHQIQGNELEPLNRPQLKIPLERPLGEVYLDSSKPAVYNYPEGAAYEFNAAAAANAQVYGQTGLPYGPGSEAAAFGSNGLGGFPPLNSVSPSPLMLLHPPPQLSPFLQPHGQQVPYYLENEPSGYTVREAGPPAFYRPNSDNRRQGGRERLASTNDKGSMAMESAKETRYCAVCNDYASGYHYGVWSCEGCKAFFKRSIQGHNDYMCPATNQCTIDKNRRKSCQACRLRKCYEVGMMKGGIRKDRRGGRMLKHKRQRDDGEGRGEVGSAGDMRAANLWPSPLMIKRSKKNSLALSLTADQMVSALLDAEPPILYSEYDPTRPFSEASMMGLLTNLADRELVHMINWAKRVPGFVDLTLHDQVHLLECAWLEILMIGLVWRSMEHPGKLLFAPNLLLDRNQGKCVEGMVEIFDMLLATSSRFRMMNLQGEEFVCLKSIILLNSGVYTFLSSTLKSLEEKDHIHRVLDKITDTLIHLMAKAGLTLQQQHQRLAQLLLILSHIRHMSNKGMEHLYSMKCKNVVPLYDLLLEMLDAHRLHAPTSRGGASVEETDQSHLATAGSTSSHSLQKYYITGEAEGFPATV
Experimental: T47D cells were cultured in 5% CO2 incubator in 10 cm dishes to approximately 75% confluence in RPMI growth media supplemented with 10% FBS and 5 μg/mL human insulin.
Cells were harvested and protein expression was analyzed using standard practice. Tumors were harvested at the indicated time points after the last day of dosing, homogenized in RIPA buffer with protease and phosphatase inhibitors using a Tissuelyser (Qiagen). Equal amounts of protein were separated by MW, transferred to nitrocellulose membranes and blotted with the following antibodies using standard practice: • Estrogen receptor (SantaCruz (HC-20); sc-543) • Progesterone receptor (Cell Signaling Technologies; 3153) • Vinculin (Sigma-Aldrich, v9131)
qPCR analyses were performed as follows: Cells were harvested, mRNA was extracted, and equal amounts used for cDNA synthesis and qPCR with primers specific for progesterone receptor, GREB1, and TFF1 (LifeTech). Bands were quantified using 1D Quant software (GE).
Three ER target genes, progesterone receptor (PgR), growth regulation by estrogen in breast cancer 1 (GREB1) and trefoil factor 1 (TFF1), were used as markers.

[1] = Phase 1 dose escalation study, plasma pharmacokinetics; format: in vivo, human
Experimental: The subjects were treated with placebo or at least one dose p.o., q.d. after a light breakfast for 7 days at dose levels of 200 mg, 500 mg, 750 mg and 1000 mg, respectively.
A series of blood samples were taken during the study for the analysis of RAD1901 in plasma. Blood samples of 5 mL each were taken via an indwelling IV catheter or by direct venipuncture into tubes containing K3-EDTA as anticoagulant. Steady state was achieved by day 5 of treatment.

[2] = RAD1901 levels in plasma, tumor and brain of MCF-7 xenograft mice by LC-MS/MS; format: in vivo; conditions: 40 days
Excerpt: A similar tumor to plasma ratio was also observed at lower dose levels where tumor concentrations were approximately 20-30 fold higher than in plasma.

## CCNCCc1ccc(CN(CC)c2cc(OC)ccc2[C@@H]2CCc3cc(O)ccc3C2)cc1 [RAD1901, (6R)-6-(2-(N-(4-(2-(ethylamino)ethyl)benzyl)-N-ethylamino)-4-methoxyphenyl)-5,6,7,8-tetrahydronaphthalen-2-ol dihydrochloride]
ER
  ER degradation and ER signaling (PgR, GREB1, TFF1): caused ER degradation and inhibited ER signaling
[1]; dose range 200-1000 mg
  plasma exposure vs dose: increased more than dose proportionally
[1]; p.o., q.d.
  day of treatment by which steady state was achieved: ≤ 5 days
200 mg or 400 mg p.o., q.d.
  death or dose limiting toxicities: No death or dose limiting toxicities were observed
  maximum tolerated dose (MTD): not established
  patients with treatment-related dyspepsia: 5/8
  patients with treatment-related nausea: 3/8
200 mg p.o., q.d. up to 6 months, 400 mg p.o., q.d. up to two months
  dose limiting toxicities: No dose limiting toxicities were observed
One grade 3 treatment-related constipation, one shortness of breath not related
  serious AEs (SAEs) observed: Two
[2]; 0.3 mg/kg
  Brain (ng/mL): BLQ
[2]; 1 mg/kg
  Brain (ng/mL): BLQ
